Laboratory results reported in US12448347B2, “Polymorphic forms of (R)-oxybutynin hydrochloride” (APNIMED, INC. (DELAWARE), priority 2020, dated 2025).

Experiments:
Format in all cases: physicochemical
[1] = Hygroscopicity of the isolated solids (observation); details: HCl
[2] = Solid form stability / interconversion on drying, storage or slurrying (XRPD); details: for XRPD pattern after prolonged slurrying: slurry in MIBK and in heptanes separately, RT (2 weeks)
[3] = DVS analysis (moisture sorption/desorption)
[4] = Humidity stress in open containers with XRPD analysis; details: for XRPD form after humidity exposure / appearance of solids after humidity exposure: 24 hours, open container
Procedure: Samples of R-oxybutynin HCl Form B were exposed to 75% RH and 85% RH for 24 hours, in open containers.

hygroscopicity of isolated solids [1] | crystalline form obtained after drying ([2]; dried under vacuum at RT for 24 hours) | crystalline form obtained upon storage ([2]; storage at ambient conditions) | crystalline form obtained after high temperature drying (XRPD) ([2]; vacuum drying at 50° C. (24 h, 2 days in Table 2), HCl) | hygroscopicity by DVS ([3]; DVS analysis) | physical form of post-DVS sample (XRPD) ([3]; XRPD after DVS) | weight gain (DVS) ([3]; between 75% and 95% RH) [%] | weight change upon desorption (DVS) ([3]; desorption from 95% to 5% RH) | weight gain (DVS) ([3]; from 5% RH to 95% RH) [%] | XRPD form after humidity exposure ([4]; 75% RH) | appearance of solids after humidity exposure ([4]; 75% RH) | XRPD form after humidity exposure ([4]; 85% RH) | appearance of solids after humidity exposure ([4]; 85% RH) | outcome of humidity stress ([4]; 93% RH) | SMILES | XRPD pattern after prolonged slurrying [2]
non-hygroscopic |  |  |  |  |  |  |  |  |  |  |  |  |  | CCN(CC)CC#CCOC(=O)[C@](O)(c1ccccc1)C1CCCCC1.Cl [Form C, (R)-oxybutynin HCl] | 
hygroscopic | Form B | Form B | Form C was isolated |  |  |  |  |  |  |  |  |  |  | CCN(CC)CC#CCOC(=O)[C@](O)(c1ccccc1)C1CCCCC1.Cl [Form A, (R)-oxybutynin HCl] | Form C diffraction patterns were observed
 |  |  |  | hygroscopic | Form B remained | 23 | All the weight gained was lost | 26.6 | consistent with Form B | remained free flowing | composed of Form B | not free flowing | deliquesced | CCN(CC)CC#CCOC(=O)[C@](O)(c1ccccc1)C1CCCCC1.Cl [Form B, (R)-oxybutynin HCl] | Form C diffraction patterns were observed
